Format in all cases: in vivo
Experiment [1] relates to Aphis gossypii. Put plainly: Cotton aphid on cotton - systemic evaluation (soil drench). Conditions: systemic via root uptake, soil drench at soil concentrations of the protocols (10.0 or 20 ppm). On the procedure:
(§1) For southern root-knot nematod and systemic tests for southern armyworm, cotton aphid, tobacco budworm and greenbug, a stock solution or suspension was prepared by adding 15 mg of the test compound to 250 mg of dimethylformamide, 1250 mg of acetone and 3 mg of the emulsifier blend referenced above. Water was then added to provide a test compound concentration of 150 ppm. When necessary, sonication was provided to insure complete dispersion. Cotton aphid and tobacco budworm (on cotton) and greenbug and tobacco budworm (on sorghum) - systemic evaluation: A 7.0 ml aliquot of the 150 ppm nematode test solution was applied to deliver the equivalent of 10.0 ppm soil concentration dose as a drench to 6 cm pots containing cotton and sorghum plants. The cotton plants were previously infested with cotton aphids about two days before treatment and greenbug one day before treatment. After holding the plants about three days, the plants were rated for aphid activity. Again at six days, the plants were rated for aphid activity and the cotton aphids and greenbugs were counted and mortality was assessed. Portions of the cotton and sorghum foliage were excised, placed in separate plastic containers, and infested with second instar larvae of tobacco budworm. The potted plants were dipped in sulfotepp to kill the remaining aphids and returned to the greenhouse for regrowth. Thirteen days after treatment, the remaining foliage was excised and fed to tobacco budworms. Mortality was assessed six days after infestation. Cotton aphid and southern armyworm (on cotton) and greenbug and southern armyworm (on sorghum) - systemic evaluation: A stock solution or suspension was prepared to deliver 5 ml of a 20 ppm soil concentration dose (and subsequent dilutions) as a drench to 6 cm pots containing cotton and sorghum plants. The cotton plants were previously infested with cotton aphids about two days before treatment and greenbug one day before treatment. After holding the plants about three days, the plants were rated for aphid activity. Again at six days, the plants were rated for aphid activity and the cotton aphids and greenbugs were counted and mortality was assessed. Portions of the cotton and sorghum foliage were excised, placed in separate plastic containers, and infested with second instar larvae of southern armyworms. The potted plants were dipped in sulfotepp to kill the remaining aphids and returned to the greenhouse for regrowth. Thirteen days after treatment the remaining foliage was excised and fed to southern armyworm. Mortality was assessed six days after infestation.

Experiment [2] has as its system Heliothis virescens. Put plainly: Tobacco budworm on sorghum - systemic evaluation (soil drench). The conditions noted are these: systemic via root uptake, 10.0 ppm soil concentration. On the procedure:
For southern root-knot nematod and systemic tests for southern armyworm, cotton aphid, tobacco budworm and greenbug, a stock solution or suspension was prepared by adding 15 mg of the test compound to 250 mg of dimethylformamide, 1250 mg of acetone and 3 mg of the emulsifier blend referenced above. Water was then added to provide a test compound concentration of 150 ppm. When necessary, sonication was provided to insure complete dispersion. Cotton aphid and tobacco budworm (on cotton) and greenbug and tobacco budworm (on sorghum) - systemic evaluation: A 7.0 ml aliquot of the 150 ppm nematode test solution was applied to deliver the equivalent of 10.0 ppm soil concentration dose as a drench to 6 cm pots containing cotton and sorghum plants. The cotton plants were previously infested with cotton aphids about two days before treatment and greenbug one day before treatment. After holding the plants about three days, the plants were rated for aphid activity. Again at six days, the plants were rated for aphid activity and the cotton aphids and greenbugs were counted and mortality was assessed. Portions of the cotton and sorghum foliage were excised, placed in separate plastic containers, and infested with second instar larvae of tobacco budworm. The potted plants were dipped in sulfotepp to kill the remaining aphids and returned to the greenhouse for regrowth. Thirteen days after treatment, the remaining foliage was excised and fed to tobacco budworms. Mortality was assessed six days after infestation.

The test system of experiment [3] is Schizaphis graminum. The experiment is described as follows: Greenbug on sorghum - systemic evaluation (soil drench). The conditions noted are these: systemic via root uptake, soil drench at soil concentrations of the protocols (10.0 or 20 ppm). On the procedure: as §1
Experiment [4] has as its system Heliothis virescens. Put plainly: Tobacco budworm - contact evaluation (topical application). Conditions: topical or contact tests; application dose of 63 µg/g body weight. On the procedure:
For tobacco budworm contact tests, a stock solution was prepared by dissolving the compound in acetone and then further diluted to provide the required serial dilution concentrations.
Tobacco budworm - contact evaluation: The following topical application method provides an assessment of contact toxicity of a compound to tobacco budworm larvae The test compound solution at sequential two-fold dilution concentrations from 10 down to 0.16 µg/µl was applied by a microinjector in repli cated 1 µl portions to the dorsum of approximately 20 mg tobacco budworm larvae. This is equivalent to applied doses of 500 down to 8 µg/g body weight. An acetone treated control, without any test compounds, as also applied. A treated control with a commercial technical compound, cypermethrin or thiodicarb, also in acetone was used as a standard. The treated larvae were placed, individually, in separate plastic petri dishes containing an untreated cotton leaf and a moist dental wick. The treated larvae were maintained at about 27°C and 50% relative humidity. The percent mortality was rated 1 and 4 days after treatment.

Experiment [5] has as its system Tetranychus urticae. Put plainly: Twospotted spider mite test (foliar, 100 ppm). Conditions: foliar bait tests. As for the experimental part: For mite, aphid, southern armyworm, Mexican bean beetle, and tobacco budworm tests, a solution or suspension was prepared by adding 10 mg of the test compound to a solution of 160 mg of dimethylformamide, 838 mg of acetone, 2 mg of a 3:1 ratio of Triton X-172 : Triton X-152 (respectively, mainly anionic and nonionic low foam emulsifiers which are each anhydro us blends of alkylaryl polyether alcohols with organic sulfonates), and 98.99 g of water. The result was a concentration of 100 ppm of the test compound.
Twospotted spider mite: Leaves infested with adult and nymphal stages of the two-spotted spider mite, obtained from a stock culture were placed on the primary leaves of two bean plants growing in a 6 cm. peat pot. A sufficient number of mites (150-200) for testing were transferred to the fresh plants within a period of twenty-four hours. The potted plants (one pot per compound) were placed on a revolving turntable and sprayed, sufficient to wet the plants to runoff, with 100 ml of the 100 ppm test compound formulation by use of a DeVilbiss spray gun set at 40 psig. air pressure. As an untreated control, 100 ml of the water-acetone-DMF-emulsifier solution, containing no test compound, were also sprayed on infested plants. A treated control with a commercial technical compound, either dicofol or hexythiazox, formulated in the same manner, was tested as a standard. […]

In experiment [6] the test system is Meloidogyne incognita. Put plainly: Southern root-knot nematode test (gall rating on tomato). Conditions: effective dose to provide a 3 gall rating (light galling). On the procedure: For southern root-knot nematod and systemic tests for southern armyworm, cotton aphid, tobacco budworm and greenbug, a stock solution or suspension was prepared by adding 15 mg of the test compound to 250 mg of dimethylformamide, 1250 mg of acetone and 3 mg of the emulsifier blend referenced above. Water was then added to provide a test compound concentration of 150 ppm. When necessary, sonication was provided to insure complete dispersion.
Southern root-knot nematode: Infected roots of tomato plants, containing egg masses of southern root-knot nematode, were removed from a stock culture and cleaned of soil by shaking and washing with tap water. The nematode eggs were separated from the root tissue and rinsed with water. Samples of the egg suspension were placed on a fine screen over a receiving bowl, in which the water level was adjusted to be in contact with the screen. From the bowl, juveniles were collected on a fine screen. […] At the termination of the test, roots of the tomato seedling were removed from the cone and evaluated for galling on a rating scale relative to the untreated control as follows: • 1- severe galling, equal t untreated control • 3- light galling • 4- very light galling • 5- no galling, ie, complete control

Experiment [7] concerns Spodoptera eridania. Put plainly: Southern armyworm on oats - seed treatment evaluation. Conditions: 1.0 wt. % on oat seeds. As for the experimental part: Cotton aphid and southern armyworm (on cotton and oats) - seed treatment evaluation: Technical material was applied to the seed of oats and cotton by placing the compound and the seed in an appropriate sized jar and rolling the jar on a ball mill. Assay of the material applied to the seed was by weight. Seed was then planted. When germinated and emerged, the plants were infested at the appropriate intervals with host insects. Mortality was assessed on those insects.

Experiment [8] deals with Spodoptera eridania. Put plainly: Southern armyworm on sorghum - systemic evaluation (soil drench). Conditions: systemic via root uptake, 20 ppm soil concentration dose (and subsequent dilutions), six days. On the procedure:
Cotton aphid and southern armyworm (on cotton) and greenbug and southern armyworm (on sorghum) - systemic evaluation: A stock solution or suspension was prepared to deliver 5 ml of a 20 ppm soil concentration dose (and subsequent dilutions) as a drench to 6 cm pots containing cotton and sorghum plants. The cotton plants were previously infested with cotton aphids about two days before treatment and greenbug one day before treatment. After holding the plants about three days, the plants were rated for aphid activity. Again at six days, the plants were rated for aphid activity and the cotton aphids and greenbugs were counted and mortality was assessed. Portions of the cotton and sorghum foliage were excised, placed in separate plastic containers, and infested with second instar larvae of southern armyworms. The potted plants were dipped in sulfotepp to kill the remaining aphids and returned to the greenhouse for regrowth. Thirteen days after treatment the remaining foliage was excised and fed to southern armyworm. Mortality was assessed six days after infestation.

For experiment [9], the system named is Spodoptera eridania. The experiment is described as follows: Southern armyworm on tomato - systemic evaluation. Conditions: systemic via root uptake; 6.6 ppm soil concentration; foliage excised 21 days after treatment, larvae examined after about 5 days. On the procedure:
For southern root-knot nematod and systemic tests for southern armyworm, cotton aphid, tobacco budworm and greenbug, a stock solution or suspension was prepared by adding 15 mg of the test compound to 250 mg of dimethylformamide, 1250 mg of acetone and 3 mg of the emulsifier blend referenced above. Water was then added to provide a test compound concentration of 150 ppm. When necessary, sonication was provided to insure complete dispersion. Southern armyworm on tomato - systemic evaluation: This test was conducted in conjunction with the southern root-knot nematode evaluation (discussed below). The tomato plants, grown in the soil (at an initial compound test screening rate of 6.6 ppm soil concentration or about 150 ppm solution concentration) for nematode evaluation, were then utilized for evaluation of a compound's uptake via roots and subsequent systemic transport to the tomato foliage. At the termination of the nematode test, 21 days after treatment, the tomato foliage was excised, placed into a plastic container, and infested with second instar larvae of southern armyworm. After about 5 days, the larvae were examined for percent mortality.

In the case of `Cc1cc(C=Nc2c(SC(F)(F)F)c(C#N)nn2-c2c(Cl)cc(C(F)(F)F)cc2Cl)ccc1O` [compound 19], the “control of cotton aphid after six days on cotton” value (from here on “control of cotton aphid”) in experiment [1] is listed as 30-100%. Also, the “control of tobacco budworm after six days on sorghum” value in [2] was 100%. In [3], the “control of greenbug after six days on sorghum” value (“control of greenbug” below) is on record as 30-100%.
Turning to `N#Cc1nn(-c2c(Cl)cc(C(F)(F)F)cc2Cl)c(N=Cc2ccncc2)c1SC(F)(F)F` [compound 16, 1-(2,6-dichloro-4-trifluoromethylphenyl)-3-cyano-4-trifluoromethylsulfenyl-5-[(4-pyridyl)-methylideneimino]pyrazole], the “control of cotton aphid” value in experiment [1] is recorded as 30-100%. The “control of tobacco budworm after six days on sorghum” value in experiment [2] was determined as 100%. Moreover, the “control of greenbug” value in [3] was 30-100%.
In the case of `COc1cc(C=Nc2c(SC(F)(F)F)c(C#N)nn2-c2c(Cl)cc(C(F)(F)F)cc2Cl)cc(O)c1O` [compound 40], in experiment [4], the “control of tobacco budworm (TBW)” value is given as 50-100%. Also, the control of mites in experiment [5] is reported as 30-70%.
For `CCOc1cc(C=Nc2c([S+]([O-])C(F)(F)F)c(C#N)nn2-c2c(Cl)cc(C(F)(F)F)cc2Cl)ccc1O` (stereo not drawn) [compound 47], the control of mites in experiment [5] was 30-70%.
As to `N#Cc1nn(-c2c(Cl)cc(C(F)(F)F)cc2Cl)c(N=Cc2cccs2)c1SC(F)(F)F` [compound 7], the “ED3 value on SRKN larvae” value in experiment [6] is “about 21 kg/ha”.
As to `COc1cc(C=Nc2c(SC(F)(F)F)c(C#N)nn2-c2c(Cl)cc(C(F)(F)F)cc2Cl)ccc1O` [CMPD NO. 2, 1-(2,6-dichloro-4-trifluoromethylphenyl)-3-cyano-4-trifluoromethylsulfenyl-5-[(4-hydroxy-3-methoxyphenyl)methylideneimino]pyrazole], the “control of southern armyworm after six days” value in [7] is given as 100%. Moreover, the “control of southern armyworm after six days on sorghum” value in experiment [8] is listed as 30-100%.
For `COc1cc(C=Nc2c([S+]([O-])C(F)(F)F)c(C#N)nn2-c2c(Cl)cc(C(F)(F)F)cc2Cl)ccc1O` (stereo not drawn) [compound 10, 1-(2,6-dichloro-4-trifluoromethylphenyl)-3-cyano-4-trifluoromethylsulfinyl-5-[(4-hydroxy-3-methoxyphenyl)methylideneimino]pyrazole], the “control of southern armyworm after six days on sorghum” value in experiment [8] was 30-100%. The “ED3 value on SRKN larvae” value in experiment [6] is “about 21 kg/ha”. The “control of southern armyworm on tomato” value in experiment [9] was 50-100%.
As for `N#Cc1nn(-c2c(Cl)cc(C(F)(F)F)cc2Cl)c(N=Cc2cc[n+]([O-])cc2)c1SC(F)(F)F` [compound 18, 1-(2,6-dichloro-4-trifluoromethylphenyl)-3-cyano-4-trifluoromethylsulfenyl-5-[(4-pyridyl-N-oxide)methylideneimino]pyrazole], in [1], the “control of cotton aphid” value is listed as 30-100%. Moreover, the “control of tobacco budworm after six days on sorghum” value in experiment [2] is 100%. In addition, the “control of greenbug” value in experiment [3] was 30-100%.
For the compound `N#Cc1nn(-c2c(Cl)cc(C(F)(F)F)cc2Cl)c(N=Cc2ccc(O)cc2O)c1SC(F)(F)F` [compound 17], the “control of cotton aphid” value in [1] is reported as 30-100%. Further, the “control of tobacco budworm after six days on sorghum” value in experiment [2] came to 100%. Also, the “control of greenbug” value in [3] is 30-100%.

The values are drawn from patent EP0511845B1, “Pesticidal 1-aryl-5-(substituted alkylideneimino)-pyrazoles” (AVENTIS CROPSCIENCE S.A., priority 1991, dated 1992).
